Measurements published in ChEMBL document CHEMBL1201862, “PubChem BioAssay data set” (2004).
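Step 1: Grow cells in 96-well plates. Step 2: Expose to compound for 48 hours at 5 concentrations. Step 3: Interpolate endpoints linearly; if unreached, use highest concentration. GI50 is the concentration that inhibits growth by half.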 Activity calls are given as the source filed them. Rule as the data show it: active = GI50 up to about 1.1 µM and inactive = higher.

Key:
Test in all cases: inhibition of tumour cell growth, NCI panel, 48 h
[1] = test system: CAKI-1
[2] = test system: COLO 205
[3] = test system: HCT-15
[4] = test system: HOP-62
[5] = test system: HT-29
[6] = test system: IGROV-1
[7] = test system: MDA-MB-231
[8] = test system: OVCAR-5
[9] = test system: RPMI-8226
[10] = test system: RXF 393
[11] = test system: SK-MEL-5
[12] = test system: SK-OV-3
[13] = test system: TK-10
[14] = test system: U-251
[15] = test system: UACC-257
[16] = test system: UACC-62
[17] = test system: A549
[18] = test system: NCI-H226
[19] = test system: SNB-19
[20] = test system: NCI-H522

CC1=C(SCc2ccccc2)C(=O)c2ccccc2C1=O
GI50 [1]: 13.4 µM (inactive) | GI50 [2]: 19.7 µM (inactive) | GI50 [3]: 18.5 µM | GI50 [4]: 17.3 µM (inactive) | GI50 [5]: 30.3 µM (inactive) | GI50 [6]: 12 µM (inactive) | GI50 [7]: 17.1 µM (inactive) | GI50 [8]: 25.5 µM (inactive) | GI50 [9]: 2.42 µM (inactive) | GI50 [10]: 16.6 µM (inactive) | GI50 [11]: 14.4 µM (inactive) | GI50 [12]: 20.2 µM (inactive) | GI50 [13]: 21 µM (inactive) | GI50 [14]: 16.8 µM (inactive) | GI50 [15]: 16.1 µM (inactive) | GI50 [16]: 15.8 µM (inactive)

NC(=O)C(=Cn1c(=S)[nH]c2ccc([N+](=O)[O-])cc21)C(N)=O
GI50 [17]: > 100 µM (inactive) | GI50 [1]: > 100 µM (inactive) | GI50 [2]: > 100 µM (inactive) | GI50 [3]: > 100 µM | GI50 [4]: > 100 µM (inactive) | GI50 [5]: > 100 µM (inactive) | GI50 [6]: > 100 µM (inactive) | GI50 [7]: > 100 µM (inactive) | GI50 [18]: 28.8 µM (inactive) | GI50 [8]: > 100 µM (inactive) | GI50 [10]: > 100 µM (inactive) | GI50 [11]: > 100 µM (inactive) | GI50 [12]: > 100 µM (inactive) | GI50 [19]: > 100 µM (inactive) | GI50 [13]: > 100 µM (inactive) | GI50 [14]: > 100 µM (inactive) | GI50 [15]: > 100 µM (inactive) | GI50 [16]: > 100 µM (inactive)

Cc1ccc(C(=O)Oc2ccc(/C=C3\CCC/C(=C\c4ccc(OC(=O)c5ccc(C)cc5)cc4)C3=O)cc2)cc1
GI50 [17]: > 100 µM (inactive) | GI50 [1]: > 100 µM (inactive) | GI50 [2]: > 100 µM (inactive) | GI50 [3]: > 100 µM | GI50 [4]: > 100 µM (inactive) | GI50 [5]: > 100 µM (inactive) | GI50 [6]: > 100 µM (inactive) | GI50 [7]: > 100 µM (inactive) | GI50 [20]: > 100 µM (inactive) | GI50 [8]: > 100 µM (inactive) | GI50 [9]: > 100 µM (inactive) | GI50 [11]: > 100 µM (inactive) | GI50 [19]: > 100 µM (inactive) | GI50 [13]: > 100 µM (inactive) | GI50 [14]: > 100 µM (inactive) | GI50 [15]: > 100 µM (inactive) | GI50 [16]: > 100 µM (inactive)

OC1CCC(COC(c2ccccc2)(c2ccccc2)c2ccccc2)O1 (centres undefined)
GI50 [17]: 17.7 µM (inactive) | GI50 [1]: 17.1 µM (inactive) | GI50 [2]: 17.1 µM (inactive) | GI50 [3]: 16.9 µM | GI50 [4]: 19.6 µM (inactive) | GI50 [5]: 18.3 µM (inactive) | GI50 [6]: 18.2 µM (inactive) | GI50 [7]: 16.6 µM (inactive) | GI50 [18]: 24.2 µM (inactive) | GI50 [20]: 17.7 µM (inactive) | GI50 [8]: 22.9 µM (inactive) | GI50 [9]: 19.5 µM (inactive) | GI50 [11]: 16.9 µM (inactive) | GI50 [12]: 20.2 µM (inactive) | GI50 [19]: 21.1 µM (inactive) | GI50 [13]: > 10 µM (inactive) | GI50 [14]: 18.8 µM (inactive) | GI50 [15]: 16.8 µM (inactive) | GI50 [16]: 17.2 µM (inactive)

CCOC(=O)NC(Nc1ccc(C(=O)OCC)cc1)(C(F)(F)F)C(F)(F)F
GI50 [17]: 50.9 µM (inactive) | GI50 [2]: > 100 µM (inactive) | GI50 [3]: 42.9 µM | GI50 [4]: > 100 µM (inactive) | GI50 [5]: > 100 µM (inactive) | GI50 [6]: 56.8 µM (inactive) | GI50 [7]: > 100 µM (inactive) | GI50 [18]: > 100 µM (inactive) | GI50 [20]: > 100 µM (inactive) | GI50 [8]: 79.8 µM (inactive) | GI50 [9]: > 100 µM (inactive) | GI50 [11]: 65.2 µM (inactive) | GI50 [12]: > 100 µM (inactive) | GI50 [19]: 96.8 µM (inactive) | GI50 [13]: > 100 µM (inactive) | GI50 [14]: 68.1 µM (inactive) | GI50 [16]: 13.1 µM (inactive)

COc1ccc(CC/N=C2\OCc3ccccc32)cc1OC
GI50 [17]: 46.3 µM (inactive) | GI50 [1]: 62.4 µM (inactive) | GI50 [2]: 49.3 µM (inactive) | GI50 [3]: 38.8 µM | GI50 [5]: 32.1 µM (inactive) | GI50 [6]: 67 µM (inactive) | GI50 [7]: 61.8 µM (inactive) | GI50 [18]: 51.3 µM (inactive) | GI50 [11]: 43.3 µM (inactive) | GI50 [12]: 30.5 µM (inactive) | GI50 [19]: > 100 µM (inactive) | GI50 [13]: > 100 µM (inactive) | GI50 [14]: > 100 µM (inactive) | GI50 [15]: > 100 µM (inactive) | GI50 [16]: 29.2 µM (inactive)

Fc1cccc(F)c1C1SCC2=Nc3ccccc3CN21 (centres undefined)
GI50 [17]: 63 µM (inactive) | GI50 [1]: > 100 µM (inactive) | GI50 [2]: > 100 µM (inactive) | GI50 [3]: > 100 µM | GI50 [4]: 20.8 µM (inactive) | GI50 [6]: 42.5 µM (inactive) | GI50 [7]: > 100 µM (inactive) | GI50 [8]: 56 µM (inactive) | GI50 [9]: 56.1 µM (inactive) | GI50 [10]: 23.9 µM (inactive) | GI50 [11]: 31.4 µM (inactive) | GI50 [12]: 36.8 µM (inactive) | GI50 [19]: 44.1 µM (inactive) | GI50 [13]: > 100 µM (inactive) | GI50 [14]: > 100 µM (inactive) | GI50 [15]: 60.3 µM (inactive) | GI50 [16]: 41 µM (inactive)

CC/C(=N/O)c1ccc(Br)s1
GI50 [17]: > 100 µM (inactive) | GI50 [1]: > 100 µM (inactive) | GI50 [2]: > 100 µM (inactive) | GI50 [3]: > 100 µM | GI50 [4]: > 100 µM (inactive) | GI50 [5]: > 100 µM (inactive) | GI50 [6]: 55.6 µM (inactive) | GI50 [7]: > 100 µM (inactive) | GI50 [18]: > 100 µM (inactive) | GI50 [20]: > 100 µM (inactive) | GI50 [8]: > 100 µM (inactive) | GI50 [10]: 70.3 µM (inactive) | GI50 [11]: > 100 µM (inactive) | GI50 [12]: > 100 µM (inactive) | GI50 [19]: 66.1 µM (inactive) | GI50 [13]: > 100 µM (inactive) | GI50 [14]: > 100 µM (inactive) | GI50 [15]: > 100 µM (inactive) | GI50 [16]: 84.1 µM (inactive)

COC(=O)c1ccc(OCc2ccc3nc(-c4ccccc4)c(Cl)nc3c2)cc1
GI50 [17]: 86.9 µM (inactive) | GI50 [1]: 28.6 µM (inactive) | GI50 [2]: 76.2 µM (inactive) | GI50 [3]: > 100 µM | GI50 [4]: 29.4 µM (inactive) | GI50 [5]: > 100 µM (inactive) | GI50 [6]: 85.5 µM (inactive) | GI50 [7]: 23.2 µM (inactive) | GI50 [20]: 11.8 µM (inactive) | GI50 [8]: > 100 µM (inactive) | GI50 [9]: > 100 µM (inactive) | GI50 [11]: 76.6 µM (inactive) | GI50 [19]: 92.5 µM (inactive) | GI50 [13]: 58.2 µM (inactive) | GI50 [14]: 27.7 µM (inactive) | GI50 [15]: > 100 µM (inactive) | GI50 [16]: > 100 µM (inactive)

OCC(O)C(Cl)CCl (centres undefined)
GI50 [17]: > 100 µM (inactive) | GI50 [1]: > 100 µM (inactive) | GI50 [2]: > 100 µM (inactive) | GI50 [3]: > 100 µM | GI50 [4]: > 100 µM (inactive) | GI50 [5]: > 100 µM (inactive) | GI50 [6]: > 100 µM (inactive) | GI50 [7]: > 100 µM (inactive) | GI50 [18]: > 100 µM (inactive) | GI50 [20]: > 100 µM (inactive) | GI50 [8]: > 100 µM (inactive) | GI50 [11]: > 100 µM (inactive) | GI50 [12]: > 100 µM (inactive) | GI50 [19]: > 100 µM (inactive) | GI50 [13]: > 100 µM (inactive) | GI50 [14]: > 100 µM (inactive) | GI50 [15]: > 100 µM (inactive) | GI50 [16]: > 100 µM (inactive)

C=CCc1c(O)c2ccccc2[nH]c1=O
GI50 [17]: > 100 µM (inactive) | GI50 [1]: > 100 µM (inactive) | GI50 [2]: > 100 µM (inactive) | GI50 [3]: > 100 µM | GI50 [4]: > 100 µM (inactive) | GI50 [5]: > 100 µM (inactive) | GI50 [6]: > 100 µM (inactive) | GI50 [7]: > 100 µM (inactive) | GI50 [18]: > 100 µM (inactive) | GI50 [20]: > 100 µM (inactive) | GI50 [8]: > 100 µM (inactive) | GI50 [9]: > 100 µM (inactive) | GI50 [11]: > 100 µM (inactive) | GI50 [19]: > 100 µM (inactive) | GI50 [13]: > 100 µM (inactive) | GI50 [14]: > 100 µM (inactive) | GI50 [15]: > 100 µM (inactive)

Oc1[nH]c(Nc2ccc(F)c(Cl)c2)nc2ncnc1-2
GI50 [17]: > 100 µM (inactive) | GI50 [1]: > 100 µM (inactive) | GI50 [2]: > 100 µM (inactive) | GI50 [3]: > 100 µM | GI50 [4]: > 100 µM (inactive) | GI50 [5]: > 100 µM (inactive) | GI50 [6]: > 100 µM (inactive) | GI50 [7]: > 100 µM (inactive) | GI50 [18]: > 100 µM (inactive) | GI50 [20]: > 100 µM (inactive) | GI50 [8]: > 100 µM (inactive) | GI50 [9]: > 100 µM (inactive) | GI50 [11]: > 100 µM (inactive) | GI50 [12]: > 100 µM (inactive) | GI50 [19]: > 100 µM (inactive) | GI50 [13]: > 100 µM (inactive) | GI50 [14]: 99.1 µM (inactive) | GI50 [15]: > 100 µM (inactive) | GI50 [16]: > 100 µM (inactive)
